# In patent publication US20040224031A1, “Combination of amines and vanadium (IV)/(V) compounds for the treatment and/or prevention of diabetes mellitus” (priority 2003, published 2004):
# Columns and labels:
# [1] = tested on: isolated rat adipocytes; experiment: Hexose transport (2-deoxyglucose uptake) in isolated rat adipocytes; assay type: cell-based; design: stimulation of 2-deoxyglucose uptake, agent alone: dose or concentration left out as unconfirmed; conditions: for glucose transport (2-DG uptake): 45 min preincubation of fat cells with increasing concentrations; for stimulation of 2-deoxyglucose uptake, agent alone: benzylamine or orthovanadate alone, 10-min uptake
# Protocol: Adipocyte isolation. […] Adipose cells isolated in such a way were used in subsequent studies.
# Hexose transport. After a preincubation period of 45 min at 37° C. in vials containing 400 μl of cell suspension in KRBH with the tested products, [^3H]-2-deoxyglucose was added at a final concentration of 0.1 mM (approx. 1,300,000 d.p.m./vial). […] After centrifugation, the fat cells (upper part of the tubes) were placed in scintillation vials and the incorporated radioactivity was counted.
# [2] = tested on: GLUT4; design: increase in the abundance of GLUT4 in plasma membrane preparations / abundance of GLUT4 in plasma membranes, agent alone: dose or concentration left out as unconfirmed; conditions: for abundance of GLUT4 in plasma membranes, agent alone: benzylamine or orthovanadate alone; for amount of GLUT4 protein in the plasma membrane (PM): n=3, orthovanadate 0.1 mM
# Protocol: To verify whether the stimulation of glucose transport in rat adipocytes may be explained by a translocation of the insulin-sensitive glucose transporters from an internal site to the plasma membrane, as it is known for insulin, the amount of GLUT4 protein was determined in plasma membrane (PM) and low density microsome (LDM) fractions.
# [3] = tested on: streptozotocin-induced diabetic rats; experiment: Chronic administration in streptozotocin-induced diabetic rats; assay type: in vivo, rat; conditions: for food and water consumption / weight of epididymal adipose tissue (adiposity): chronic treatment of diabetic rats
# From the text: A group of animals was also subjected to daily i.p. injection of vanadate (50 μmol/kg body wt) for two weeks.
# In other studies, rats were daily injected intraperitoneally with 25 μmol/kg vanadate for the first week and with 50 μmol/kg for the second week.
# [4] = 1 mM H2O2, preincubation 45 min, n=23
# [5] = vanadate i.p. 25 μmol/kg first week and 50 μmol/kg second week, benzylamine 84 μmol/kg, FIG. 6, FIG. 7
compound,measurement,setting,value
"OO [H2O2, hydrogen peroxide]",effect relative to the maximal insulin effect,[1]; [4],46%
same,factor multiplying basal hexose transport,[1]; [4],5.0±0.8 fold
same,glucose transport (2-DG uptake),"[1]; 5-min 2-DG uptake, FIG. 1",dose-dependently stimulated
NCc1ccccc1 [benzylamine],"abundance of GLUT4 in plasma membranes, agent alone",[2]; 45 minutes incubation,did not alter
same,"stimulation of 2-deoxyglucose uptake, agent alone",[1]; FIG. 3,no stimulatory effect
same,food and water consumption,[3],not detected
same,weight of epididymal adipose tissue (adiposity),[3],not detected
same,glycemia,[3]; [5],remained hyperglycemic
CNC[C@H](O)c1cccc(O)c1 [phenylephrine],glucose transport (2-DG uptake),"[1]; 5-min 2-DG uptake, FIG. 1",not activated
NNC(N)=O [semicarbazide],effect on glucose transport stimulated by 1 mM hydrogen peroxide plus 0.1 mM orthovanadate,[1],unaffected
same,inhibition at 100 µM,"[1]; Rattus norvegicus, Adipocyte, read-out: inhibition of the glucose transport promoted by 1 mM tyramine plus orthovanadate",59 ± 7%
same,effect on stimulation of 2-deoxyglucose uptake by benzylamine and orthovanadate,"[1]; semicarbazide (1 mM), FIG. 3",abolished
NCCc1c[nH]c2ccc(O)cc12 [serotonin],glucose transport (2-DG uptake),"[1]; 5-min 2-DG uptake, FIG. 1",not activated
NCCc1ccc(O)cc1 [tyramine],glucose transport (2-DG uptake),"[1]; 5-min 2-DG uptake, FIG. 1",not activated
same,"synergism on glucose transport with low, ineffective doses of insulin (10 pM) or hydrogen peroxide (0.01 mM)",[1]; not shown,no synergism
insulin: hormone used as positive control for glucose transport and GLUT4 translocation,GLUT4 abundance in light microsomes,[2],reduction
same,increase in the abundance of GLUT4 in plasma membrane preparations,[2]; 45 minutes incubation,3.3 fold
same,"content of β1-integrin, a constitutive PM protein","[2]; Example 2, plasma membrane fraction",without any significant change
same,plasma membrane marker β1-integrin,"[2]; Example 4, 45 minutes incubation",remained unaltered
same,decrease of basal GLUT4 content of LDM,"[2]; Western blot, low density microsomes",29%
same,amount of GLUT4 protein in the plasma membrane (PM),[2]; Western blot,252±43%
same,increase of basal 2-DG uptake,"[1]; insulin, 45 min preincubation, 5-min 2-DG uptake, FIG. 1",twelve-fold
sodium orthovanadate,"abundance of GLUT4 in plasma membranes, agent alone",[2]; 45 minutes incubation,did not alter
same,amount of GLUT4 protein in the plasma membrane (PM),[2]; Western blot,103±8%
same,stimulation of glucose transport as % of that of 100 nM insulin,"[1]; 1 mM tyramine, 0.1 mM orthovanadate, 100 nM insulin, n=40",5±1%
same,"stimulation of 2-deoxyglucose uptake, agent alone",[1]; FIG. 3,did not stimulate
same,effect on basal or insulin-stimulated glucose transport,"[1]; orthovanadate alone 0.1 mM, FIG. 2",did not affect
same,food and water consumption,[3],not detected
same,weight of epididymal adipose tissue (adiposity),[3],not detected
same,glycemia,"[3]; vanadate 50 μmol/kg daily i.p. for two weeks, benzylamine 84 μmol/kg/day by osmotic minipumps, FIG. 5",moderate reduction
same,glycemia,[3]; [5],remained hyperglycemic
